Laboratory results published in ChEMBL document CHEMBL3217737, “Discovery of a highly selective FLT3 kinase inhibitor from phenotypic cell viability profiling” (Medchemcomm, 2013).
pIC50: −log10 of the molar value. Activity calls are given as the source filed them. The rule behind the calls is not given here.

How the values were obtained:
[1] = target: Proto-oncogene tyrosine-protein kinase Src (Homo sapiens) (UniProt P12931); experiment: Inhibition of c-Src (unknown origin) at 10 uM assessed as residual enzyme activity
[2] = target: Hepatocyte growth factor receptor (Homo sapiens) (UniProt P08581); experiment: Inhibition of c-Met (unknown origin) at 10 uM assessed as residual enzyme activity
[3] = target: Cyclin-dependent kinase 5/CDK5 activator 1 (Homo sapiens) (UniProt Q00535+Q15078); experiment: Inhibition of CDK5/p35 (unknown origin) at 10 uM assessed as residual enzyme activity; assay type: protein-complex assay
[4] = target: CDK1/Cyclin A (Homo sapiens) (UniProt P06493+P20248); experiment: Inhibition of CDK1/Cyclin A (unknown origin) at 10 uM assessed as residual enzyme activity; assay type: protein-complex assay
[5] = target: Mitogen-activated protein kinase kinase kinase 5 (Homo sapiens) (UniProt Q99683); experiment: Inhibition of ASK1 (unknown origin) at 10 uM assessed as residual enzyme activity
[6] = target: RAC-alpha serine/threonine-protein kinase (Homo sapiens) (UniProt P31749); experiment: Inhibition of AKT1 (unknown origin) at 10 uM assessed as residual enzyme activity
[7] = target: ALK tyrosine kinase receptor (Homo sapiens) (UniProt Q9UM73); experiment: Inhibition of ALK (unknown origin) at 10 uM assessed as residual enzyme activity
[8] = target: Mast/stem cell growth factor receptor Kit (Homo sapiens) (UniProt P10721); experiment: Inhibition of c-KIT (unknown origin) at 10 uM assessed as residual enzyme activity
[9] = target: Receptor-type tyrosine-protein kinase FLT3 (Homo sapiens, UniProt P36888); experiment: Inhibition of FLT3 (unknown origin) by kinase hot spot assay
[10] = tested on: HL-60; experiment: Cytotoxicity against human HL60 cells assessed as cell growth inhibition after 24 hrs by WST1 assay; assay type: functional, cell-based
[11] = tested on: HL-60; experiment: Inhibition of STAT5 phosphorylation in human HL60 cells at 0.1 to 10 uM after 12 hrs by Western blot method; assay type: cell-based
[12] = target: Receptor-type tyrosine-protein kinase FLT3 (Homo sapiens) (UniProt P36888); experiment: Inhibition of FLT3 in human MV4-11 cells assessed as reduction in ERK phosphorylation after 12 hrs by Western blot method; assay type: cell-based
[13] = tested on: MV4-11; experiment: Induction of apoptosis in human MV4-11 cells assessed as increase in cleaved caspase-3 level at 0.1 to 10 uM after 12 hrs by Western blot method; assay type: functional, cell-based
[14] = tested on: MV4-11; experiment: Induction of apoptosis in human MV4-11 cells assessed as increase in cleaved PARP level at 0.1 to 10 uM after 12 hrs by Western blot method; assay type: functional, cell-based
[15] = tested on: MV4-11; experiment: Induction of apoptosis in human MV4-11 cells assessed as caspase 3 cleavage at 0.1 to 10 uM after 12 hrs by Western blot method; assay type: functional, cell-based
[16] = tested on: MV4-11; experiment: Induction of apoptosis in human MV4-11 cells assessed as PARP cleavage at 0.1 to 10 uM after 12 hrs by Western blot method; assay type: functional, cell-based
[17] = Cytotoxicity against human U87MG cells assessed as cell viability at 1 uM after 24 hrs by WST1 assay; assay type: functional, U-87MG ATCC; settings: U-87 MG, read-out: Activity
[18] = tested on: MV4-11; experiment: Cytotoxicity against human MV4-11 cells assessed as cell viability at 1 uM after 24 hrs by WST1 assay; assay type: functional; settings: MV4-11, 24 h, read-out: Activity
[19] = target: Mitogen-activated protein kinase 8 (Homo sapiens) (UniProt P45983); experiment: Inhibition of JNK1 (unknown origin) at 10 uM assessed as residual enzyme activity
[20] = target: Tyrosine-protein kinase JAK1 (Homo sapiens) (UniProt P23458); experiment: Inhibition of JAK1 (unknown origin) at 10 uM assessed as residual enzyme activity
[21] = target: Fibroblast growth factor receptor 1 (Homo sapiens) (UniProt P11362); experiment: Inhibition of FGFR1 (unknown origin) at 10 uM assessed as residual enzyme activity
[22] = target: Vascular endothelial growth factor receptor 3 (Homo sapiens) (UniProt P35916); experiment: Inhibition of VEGFR3 (unknown origin) at 10 uM assessed as residual enzyme activity
[23] = target: Leukocyte tyrosine kinase receptor (Homo sapiens) (UniProt P29376); experiment: Inhibition of LTK (unknown origin) at 10 uM assessed as residual enzyme activity
[24] = target: Vascular endothelial growth factor receptor 2 (Homo sapiens) (UniProt P35968); experiment: Inhibition of VEGFR2 (unknown origin) at 10 uM assessed as residual enzyme activity
[25] = target: Serine/threonine-protein kinase Nek4 (Homo sapiens) (UniProt P51957); experiment: Inhibition of STK2 (unknown origin) at 10 uM assessed as residual enzyme activity
[26] = target: Serine/threonine-protein kinase PLK1 (Homo sapiens) (UniProt P53350); experiment: Inhibition of PLK1 (unknown origin) at 10 uM assessed as residual enzyme activity
[27] = target: Protein kinase C alpha type (Homo sapiens) (UniProt P17252); experiment: Inhibition of PKCalpha (unknown origin) at 10 uM assessed as residual enzyme activity
[28] = organism: Homo sapiens; experiment: Inhibition of PKA (unknown origin) at 10 uM assessed as residual enzyme activity
[29] = target: Serine/threonine-protein kinase PAK 1 (Homo sapiens) (UniProt Q13153); experiment: Inhibition of PAK1 (unknown origin) at 10 uM assessed as residual enzyme activity
[30] = target: Ribosomal protein S6 kinase beta-1 (Homo sapiens) (UniProt P23443); experiment: Inhibition of p70S6K (unknown origin) at 10 uM assessed as residual enzyme activity
[31] = target: Mitogen-activated protein kinase 11 (Homo sapiens) (UniProt Q15759); experiment: Inhibition of P38beta (unknown origin) at 10 uM assessed as residual enzyme activity
[32] = target: Mitogen-activated protein kinase 14 (Homo sapiens) (UniProt Q16539); experiment: Inhibition of P38alpha (unknown origin) at 10 uM assessed as residual enzyme activity
[33] = target: Dual specificity mitogen-activated protein kinase kinase 1 (Homo sapiens) (UniProt Q02750); experiment: Inhibition of MEK1 (unknown origin) at 10 uM assessed as residual enzyme activity
[34] = target: Serine/threonine-protein kinase STK11 (Homo sapiens) (UniProt Q15831); experiment: Inhibition of LKB1 (unknown origin) at 10 uM assessed as residual enzyme activity
[35] = target: Platelet-derived growth factor receptor beta (Homo sapiens) (UniProt P09619); experiment: Inhibition of PDGFRbeta (unknown origin) at 10 uM assessed as residual enzyme activity
[36] = target: Platelet-derived growth factor receptor alpha (Homo sapiens) (UniProt P16234); experiment: Inhibition of PDGFRalpha (unknown origin) at 10 uM assessed as residual enzyme activity
[37] = target: Focal adhesion kinase 1 (Homo sapiens) (UniProt Q05397); experiment: Inhibition of FAK (unknown origin) at 10 uM assessed as residual enzyme activity
[38] = target: Mitogen-activated protein kinase 1 (Homo sapiens) (UniProt P28482); experiment: Inhibition of ERK2 (unknown origin) at 10 uM assessed as residual enzyme activity
[39] = target: Mitogen-activated protein kinase 3 (Homo sapiens) (UniProt P27361); experiment: Inhibition of ERK1 (unknown origin) at 10 uM assessed as residual enzyme activity
Sequence of Mitogen-activated protein kinase 3 (Homo sapiens) (P27361 whole entry): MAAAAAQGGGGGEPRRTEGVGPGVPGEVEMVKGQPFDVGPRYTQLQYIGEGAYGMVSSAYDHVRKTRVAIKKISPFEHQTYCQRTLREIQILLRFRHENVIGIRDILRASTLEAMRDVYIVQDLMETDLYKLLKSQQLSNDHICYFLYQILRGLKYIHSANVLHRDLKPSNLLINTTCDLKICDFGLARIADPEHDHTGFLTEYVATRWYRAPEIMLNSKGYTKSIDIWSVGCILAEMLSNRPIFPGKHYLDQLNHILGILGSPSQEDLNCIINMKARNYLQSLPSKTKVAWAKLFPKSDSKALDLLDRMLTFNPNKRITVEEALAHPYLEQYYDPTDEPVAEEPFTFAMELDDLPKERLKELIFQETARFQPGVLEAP

Sequence of Leukocyte tyrosine kinase receptor (Homo sapiens) (P29376 whole entry): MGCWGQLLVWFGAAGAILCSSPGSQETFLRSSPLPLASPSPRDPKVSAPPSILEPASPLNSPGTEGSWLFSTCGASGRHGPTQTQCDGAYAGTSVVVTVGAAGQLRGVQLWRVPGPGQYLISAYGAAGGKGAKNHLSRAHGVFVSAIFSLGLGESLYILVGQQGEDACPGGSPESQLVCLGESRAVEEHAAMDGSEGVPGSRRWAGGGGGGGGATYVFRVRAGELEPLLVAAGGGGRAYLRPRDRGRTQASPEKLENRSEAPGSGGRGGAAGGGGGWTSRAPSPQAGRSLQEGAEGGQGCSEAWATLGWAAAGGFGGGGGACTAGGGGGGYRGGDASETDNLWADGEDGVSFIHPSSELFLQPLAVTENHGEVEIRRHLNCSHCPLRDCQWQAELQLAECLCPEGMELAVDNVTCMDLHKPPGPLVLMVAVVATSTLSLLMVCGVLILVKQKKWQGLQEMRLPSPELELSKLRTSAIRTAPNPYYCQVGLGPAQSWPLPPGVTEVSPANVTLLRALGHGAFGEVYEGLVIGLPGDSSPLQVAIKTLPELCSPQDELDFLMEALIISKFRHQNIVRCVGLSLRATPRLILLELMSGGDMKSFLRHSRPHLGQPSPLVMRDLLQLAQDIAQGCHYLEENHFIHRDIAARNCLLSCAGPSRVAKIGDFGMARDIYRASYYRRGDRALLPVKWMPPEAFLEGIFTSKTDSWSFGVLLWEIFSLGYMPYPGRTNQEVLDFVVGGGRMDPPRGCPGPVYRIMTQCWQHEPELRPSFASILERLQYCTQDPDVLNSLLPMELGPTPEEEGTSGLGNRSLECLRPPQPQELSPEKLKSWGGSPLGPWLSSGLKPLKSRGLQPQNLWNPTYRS
Sequence of Dual specificity mitogen-activated protein kinase kinase 1 (Homo sapiens) (Q02750 whole entry): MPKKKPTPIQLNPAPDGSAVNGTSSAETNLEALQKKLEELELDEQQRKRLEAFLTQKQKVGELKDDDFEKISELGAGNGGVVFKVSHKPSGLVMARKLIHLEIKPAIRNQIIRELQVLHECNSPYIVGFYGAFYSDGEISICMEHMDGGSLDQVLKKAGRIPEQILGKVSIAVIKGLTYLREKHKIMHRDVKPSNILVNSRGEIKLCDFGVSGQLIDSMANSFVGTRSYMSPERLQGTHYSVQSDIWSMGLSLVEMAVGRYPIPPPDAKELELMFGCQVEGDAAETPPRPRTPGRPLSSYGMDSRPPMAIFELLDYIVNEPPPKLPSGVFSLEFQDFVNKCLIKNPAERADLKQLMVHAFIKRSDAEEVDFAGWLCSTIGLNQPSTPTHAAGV
Sequence of Receptor-type tyrosine-protein kinase FLT3 (P36888 whole entry): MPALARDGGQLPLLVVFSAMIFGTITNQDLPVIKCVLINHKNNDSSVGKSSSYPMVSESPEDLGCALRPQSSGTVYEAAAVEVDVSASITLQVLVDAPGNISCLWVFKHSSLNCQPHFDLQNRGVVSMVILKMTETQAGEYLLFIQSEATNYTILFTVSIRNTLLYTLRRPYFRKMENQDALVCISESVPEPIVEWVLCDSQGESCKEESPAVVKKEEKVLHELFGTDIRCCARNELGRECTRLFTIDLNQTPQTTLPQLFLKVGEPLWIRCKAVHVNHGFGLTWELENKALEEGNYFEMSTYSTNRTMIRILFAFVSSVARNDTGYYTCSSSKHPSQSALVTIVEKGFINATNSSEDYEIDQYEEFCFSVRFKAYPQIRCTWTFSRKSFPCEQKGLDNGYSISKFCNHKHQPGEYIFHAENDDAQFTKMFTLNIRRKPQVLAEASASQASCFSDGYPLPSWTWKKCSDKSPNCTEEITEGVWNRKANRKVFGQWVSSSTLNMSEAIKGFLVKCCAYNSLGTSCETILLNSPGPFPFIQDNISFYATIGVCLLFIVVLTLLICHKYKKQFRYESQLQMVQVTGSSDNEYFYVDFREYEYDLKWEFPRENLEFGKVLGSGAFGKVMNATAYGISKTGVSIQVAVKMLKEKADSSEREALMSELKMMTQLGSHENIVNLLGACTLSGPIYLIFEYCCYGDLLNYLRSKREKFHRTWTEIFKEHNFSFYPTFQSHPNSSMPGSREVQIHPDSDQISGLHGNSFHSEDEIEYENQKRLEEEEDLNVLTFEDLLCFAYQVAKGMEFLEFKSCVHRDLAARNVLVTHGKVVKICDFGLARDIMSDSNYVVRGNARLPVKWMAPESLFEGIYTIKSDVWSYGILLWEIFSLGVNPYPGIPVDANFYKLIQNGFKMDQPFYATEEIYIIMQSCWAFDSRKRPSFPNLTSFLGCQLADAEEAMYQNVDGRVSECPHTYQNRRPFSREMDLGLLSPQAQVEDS
Sequence of Receptor-type tyrosine-protein kinase FLT3 (Homo sapiens) (P36888 whole entry): as above
Sequence of Cyclin-dependent kinase 5/CDK5 activator 1 (Homo sapiens) (Q00535 whole entry): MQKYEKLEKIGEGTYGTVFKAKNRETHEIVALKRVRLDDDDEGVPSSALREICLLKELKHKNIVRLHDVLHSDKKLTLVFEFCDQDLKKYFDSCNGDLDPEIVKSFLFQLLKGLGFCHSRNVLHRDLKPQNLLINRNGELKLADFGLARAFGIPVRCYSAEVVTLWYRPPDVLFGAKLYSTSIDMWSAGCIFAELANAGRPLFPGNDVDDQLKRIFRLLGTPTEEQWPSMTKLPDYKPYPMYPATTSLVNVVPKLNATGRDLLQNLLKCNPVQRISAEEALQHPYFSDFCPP
Sequence of Cyclin-dependent kinase 5/CDK5 activator 1 (Homo sapiens) (Q15078 99-307 partner limits assumed): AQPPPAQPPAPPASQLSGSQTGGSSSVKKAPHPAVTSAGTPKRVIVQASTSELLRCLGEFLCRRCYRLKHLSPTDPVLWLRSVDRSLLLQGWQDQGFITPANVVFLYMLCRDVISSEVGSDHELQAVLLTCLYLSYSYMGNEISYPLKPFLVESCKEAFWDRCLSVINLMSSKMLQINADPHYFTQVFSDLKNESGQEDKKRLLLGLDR
Sequence of Serine/threonine-protein kinase PAK 1 (Homo sapiens) (Q13153 whole entry): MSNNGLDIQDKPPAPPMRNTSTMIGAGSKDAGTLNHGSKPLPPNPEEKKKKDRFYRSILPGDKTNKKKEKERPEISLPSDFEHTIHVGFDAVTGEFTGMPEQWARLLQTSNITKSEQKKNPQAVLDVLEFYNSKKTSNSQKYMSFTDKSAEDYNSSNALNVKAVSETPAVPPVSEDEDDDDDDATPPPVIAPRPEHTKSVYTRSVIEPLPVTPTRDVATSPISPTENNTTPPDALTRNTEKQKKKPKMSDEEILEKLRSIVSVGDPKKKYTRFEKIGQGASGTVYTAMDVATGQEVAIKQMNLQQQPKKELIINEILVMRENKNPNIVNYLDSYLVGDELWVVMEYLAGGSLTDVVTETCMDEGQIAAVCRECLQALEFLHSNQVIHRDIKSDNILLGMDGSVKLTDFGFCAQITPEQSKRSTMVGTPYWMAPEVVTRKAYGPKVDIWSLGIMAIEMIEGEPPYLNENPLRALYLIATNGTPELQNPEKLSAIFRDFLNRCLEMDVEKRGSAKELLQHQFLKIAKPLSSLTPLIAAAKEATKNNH

With `COc1ccc(-c2n[nH]c3ncc(-c4ccc(Cl)cc4N)cc23)cc1` the Activity [1] was 78.7%, the Activity [2] was 118% and the Activity [3] was 87.2%. The Activity [4] was 97.4%, the Activity [5] was 97.8% and the Activity [6] was 93.6%. The Activity [7] was 96.5%, the Activity [8] was 99.2% and the pIC50 [9] was 5.89. The “growth inhibition (GI)” value [10] was “inactive”, the inhibition [11] was “inactive” and the inhibition [12] was “Dose-dependent effect”. The Activity [13] was “Dose-dependent effect”, the Activity [14] was “Dose-dependent effect” and the Activity [15] was “Active”. For the same compound, the Activity [16] was “Active”, the viability at 1 µM [17] was 89% and the viability at 1 µM [18] was 30%. The Activity [19] was 101%, the Activity [20] was 103% and the Activity [21] was 90.1%. The Activity [22] was 101%, the Activity [23] was 92.9% and the Activity [24] was 98.6%. For the same compound, the Activity [25] was 85.8%, the Activity [26] was 108% and the Activity [27] was 84.5%. The Activity [28] was 93%, the Activity [29] was 98.9% and the Activity [30] was 94.1%. It also gave an Activity [31] of 97.8%, an Activity [32] of 110% and an Activity [33] of 102%. For the same compound, the Activity [34] was 101%, the Activity [35] was 96.3% and the Activity [36] was 93.8%. The Activity [37] was 96.8%, the Activity [38] was 94% and the Activity [39] was 95.4%.
